Assay results reported in the supplement of paper PMC10307832.

Columns and labels:
Test in all cases: relative viability (nuclei count vs DMSO), 5 days (fraction); higher = more cells survive
COR-L 105 = tested on: COR-L 105
How it was run: (§1)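 Cells from lung cancer lines were seeded into 1536-well plates and, one day later, dosed by pin tool. Treatments were either a single drug or a fixed dose of an anchor drug with five library-drug doses (not always all listed) in √10 steps. After 5 days, nuclei were stained in a one-step fixation (final 0.05% Triton X-100, 1% formaldehyde, 1 ug/ml Hoechst) and counted on 4× images, and relative viability is the treated-to-vehicle nuclei ratio, as the median of duplicate plates.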

RERF-LC-KJ = tested on: RERF-LC-KJ
How it was run: as §1

ChaGo-K-1 = tested on: ChaGo-K-1
How it was run: as §1

NCI-H2126 = tested on: NCI-H2126
How it was run: as §1

NCI-H647 = tested on: NCI-H647
How it was run: as §1

PC-14 = tested on: PC-14
How it was run: as §1

NCI-H23 = tested on: NCI-H23
How it was run: as §1

NCI-H1666 = tested on: NCI-H1666
How it was run: as §1

201T = tested on: 201T
How it was run: as §1

LC-2-ad = tested on: LC-2-ad
How it was run: as §1

H3255 = tested on: H3255
How it was run: as §1

HCC-78 = tested on: HCC-78
How it was run: as §1

Q: Clc1ccc(Nc2nnc(Cc3ccncc3)c3ccccc23)cc1 [Vatalanib] + CC(=O)c1c(C)c2cnc(Nc3ccc(N4CCNCC4)cn3)nc2n(C2CCCC2)c1=O [Palbociclib] (partner 0.5 µM) was tested. Which relative viability (COR-L 105; first compound 0.04 µM) did it give?
A: Its relative viability is 0.404.

Q: And the relative viability (COR-L 105; first compound 0.1265 µM)?
A: The relative viability was 0.369.

Q: What about the relative viability (COR-L 105; first compound 0.4 µM) of the same compound?
A: Its relative viability is 0.402.

Q: And the relative viability (COR-L 105; first compound 1.265 µM)?
A: Its relative viability is 0.441.

Q: And the relative viability (COR-L 105; first compound 4 µM)?
A: The relative viability was 0.396.

Q: What about the relative viability (RERF-LC-KJ; first compound 0.04 µM) of the same compound?
A: Its relative viability is 1.08.

Q: What about the relative viability (RERF-LC-KJ; first compound 0.1265 µM) of the same compound?
A: Its relative viability is 1.05.

Q: What about the relative viability (RERF-LC-KJ; first compound 0.4 µM) of the same compound?
A: The relative viability was 1.02.

Q: What about the relative viability (RERF-LC-KJ; first compound 1.265 µM) of the same compound?
A: The relative viability was 1.02.

Q: What about the relative viability (RERF-LC-KJ; first compound 4 µM) of the same compound?
A: Its relative viability is 0.903.

Q: What about the relative viability (ChaGo-K-1; first compound 0.04 µM) of the same compound?
A: Its relative viability is 0.998.

Q: And the relative viability (ChaGo-K-1; first compound 0.1265 µM)?
A: The relative viability was 0.885.

Q: What about the relative viability (ChaGo-K-1; first compound 0.4 µM) of the same compound?
A: The relative viability was 0.945.

Q: What about the relative viability (ChaGo-K-1; first compound 1.265 µM) of the same compound?
A: The relative viability was 0.969.

Q: And the relative viability (ChaGo-K-1; first compound 4 µM)?
A: Its relative viability is 0.961.

Q: And the relative viability (NCI-H2126; first compound 0.04 µM)?
A: Its relative viability is 0.314.

Q: And the relative viability (NCI-H2126; first compound 0.1265 µM)?
A: The relative viability was 0.34.

Q: And the relative viability (NCI-H2126; first compound 0.4 µM)?
A: Its relative viability is 0.383.

Q: And the relative viability (NCI-H2126; first compound 1.265 µM)?
A: Its relative viability is 0.335.

Q: And the relative viability (NCI-H2126; first compound 4 µM)?
A: The relative viability was 0.363.

Q: And the relative viability (NCI-H647; first compound 0.04 µM)?
A: Its relative viability is 0.415.

Q: And the relative viability (NCI-H647; first compound 0.1265 µM)?
A: The relative viability was 0.34.

Q: What about the relative viability (NCI-H647; first compound 0.4 µM) of the same compound?
A: The relative viability was 0.37.

Q: What about the relative viability (NCI-H647; first compound 1.265 µM) of the same compound?
A: The relative viability was 0.37.

Q: And the relative viability (NCI-H647; first compound 4 µM)?
A: Its relative viability is 0.386.

Q: What about the relative viability (PC-14; first compound 0.04 µM) of the same compound?
A: The relative viability was 0.523.

Q: What about the relative viability (PC-14; first compound 0.1265 µM) of the same compound?
A: The relative viability was 0.492.

Q: What about the relative viability (PC-14; first compound 0.4 µM) of the same compound?
A: The relative viability was 0.581.

Q: What about the relative viability (PC-14; first compound 1.265 µM) of the same compound?
A: The relative viability was 0.473.

Q: What about the relative viability (PC-14; first compound 4 µM) of the same compound?
A: The relative viability was 0.532.

Q: What about the relative viability (NCI-H23; first compound 0.04 µM) of the same compound?
A: Its relative viability is 0.469.

Q: What about the relative viability (NCI-H23; first compound 0.1265 µM) of the same compound?
A: Its relative viability is 0.435.

Q: And the relative viability (NCI-H23; first compound 0.4 µM)?
A: Its relative viability is 0.533.

Q: And the relative viability (NCI-H23; first compound 1.265 µM)?
A: Its relative viability is 0.473.

Q: What about the relative viability (NCI-H23; first compound 4 µM) of the same compound?
A: The relative viability was 0.468.

Q: What about the relative viability (NCI-H1666; first compound 0.04 µM) of the same compound?
A: Its relative viability is 0.646.

Q: What about the relative viability (NCI-H1666; first compound 0.1265 µM) of the same compound?
A: Its relative viability is 0.624.

Q: And the relative viability (NCI-H1666; first compound 0.4 µM)?
A: Its relative viability is 0.643.

Q: What about the relative viability (NCI-H1666; first compound 1.265 µM) of the same compound?
A: The relative viability was 0.616.

Q: And the relative viability (NCI-H1666; first compound 4 µM)?
A: Its relative viability is 0.667.

Q: And the relative viability (201T; first compound 0.04 µM)?
A: Its relative viability is 0.777.

Q: What about the relative viability (201T; first compound 0.1265 µM) of the same compound?
A: The relative viability was 0.344.

Q: What about the relative viability (201T; first compound 0.4 µM) of the same compound?
A: Its relative viability is 0.348.

Q: What about the relative viability (201T; first compound 1.265 µM) of the same compound?
A: The relative viability was 0.341.

Q: What about the relative viability (201T; first compound 4 µM) of the same compound?
A: Its relative viability is 0.332.

Q: And the relative viability (LC-2-ad; first compound 0.04 µM)?
A: Its relative viability is 0.494.

Q: What about the relative viability (LC-2-ad; first compound 0.1265 µM) of the same compound?
A: The relative viability was 0.448.

Q: And the relative viability (LC-2-ad; first compound 0.4 µM)?
A: Its relative viability is 0.544.

Q: What about the relative viability (LC-2-ad; first compound 1.265 µM) of the same compound?
A: The relative viability was 0.452.

Q: What about the relative viability (LC-2-ad; first compound 4 µM) of the same compound?
A: The relative viability was 0.471.

Q: And the relative viability (H3255; first compound 0.04 µM)?
A: Its relative viability is 0.308.

Q: And the relative viability (H3255; first compound 0.1265 µM)?
A: Its relative viability is 0.273.

Q: What about the relative viability (H3255; first compound 0.4 µM) of the same compound?
A: Its relative viability is 0.325.

Q: What about the relative viability (H3255; first compound 1.265 µM) of the same compound?
A: The relative viability was 0.296.

Q: What about the relative viability (H3255; first compound 4 µM) of the same compound?
A: Its relative viability is 0.309.

Q: And the relative viability (HCC-78; first compound 0.04 µM)?
A: Its relative viability is 0.471.

Q: What about the relative viability (HCC-78; first compound 0.1265 µM) of the same compound?
A: Its relative viability is 0.459.

Q: What about the relative viability (HCC-78; first compound 0.4 µM) of the same compound?
A: Its relative viability is 0.473.
